Data on nine compounds can be found in PMC7023466, “Novel N,N′-Disubstituted Acylselenoureas as Potential Antioxidant and Cytotoxic Agents” (Antioxidants, 2020).

Where two headings read alike, the source gives them in different places.

For assay [1], the system named is HT-29 cells. Description: Protective effects against H2O2-induced oxidative stress (MTT). The assay is classed as cell-based, human. To be noted: for increase fold of cell survival: compound 0.03 mg/mL, 12 h. The protocol:
An H2O2-induced oxidative damage model on HT-29 cells was established, and the cell viability was evaluated by MTT assay, as a measurement of the antioxidant activity of the compounds. Asc was used as a positive control. Briefly, 1 × 10^4 HT-29 cells per well were grown in 96-well plates. After 12 h of incubation, DMSO; 4b, 8c, 9c, and 10b compounds; or Asc were added to each well at concentrations of 0.03 and 0.003 mg/mL, and incubated for 1 h. Subsequently, H2O2 (200, 250, and 300 µM) was added and the cells were incubated for 12 h to induce cell damage. An MTT assay was performed as mentioned previously. For each treatment, the mean cell viability was calculated from three independent experiments. The DMSO-treated controls were assigned with a cell viability value of 100% (Vcontrol). The results are expressed as the increase fold of cell survival, as follows:(3) Increase fold of cell survival = (Vsample−Vsample + H2O2)/VControl−VH2O2 where Vsample refers to the viability of the cells only treated with the corresponding compound, VH2O2 refers to the viability of the HT-29 cells exposed to H2O2, and Vsample + H2O2 refers to the cell survival of each treatment with a compound and H2O2. The data are expressed as increase fold of cell survival ± standard error of the mean (SEM) in at least three independent experiments performed in quadruplicates.

Assay [2] in a line: DPPH radical scavenging assay. To be noted: 0.003 mg/mL. How it is done: DPPH assay was performed as described by Svinyarov. Briefly, each compound was initially dissolved in absolute methanol at a concentration of 1 mg/mL, and serial dilutions were prepared. Ascorbic acid (Asc), a well-known and potent antioxidant, was used as a positive control. A methanolic solution (100 µM) of DPPH^• was prepared daily and […]. The absorbance measurements of this solution were needed in order to check the stability of the radical through the time of analysis. Then, 100 µL of DPPH in methanol were added to 100 µL of the compounds’ solutions, and the decolorization of the purple radical to the yellow reduced form was followed at 517 nm. Determinations were recorded at several time intervals. All of the measurements were carried out in triplicate. The results were expressed as the percentage of the radical scavenged, calculated using the following formula:(1) % DPPH radical scavenging = Acontrol−Asample/Acontrol × 100 where Acontrol refers to the absorbance of the negative control and Asample refers to the absorbance of the tested compounds. The results are expressed as percentage of DPPH radical scavenging ± standard deviation (SD).
(In general: Loss of DPPH colour is used to gauge radical scavenging.)

The test system of assay [3] is HTB-54 cells. Description: MTT cell viability assay, HTB-54. The assay is classed as cell-based. To be noted: Homo sapiens, 48 h; for activity at 10 µM / activity at 50 µM: read-out: Growth (%) HTB-54. How it is done:
(§1) The cell viability assay of each compound was carried out using the MTT assay. Each compound was dissolved in dimethyl sulfoxide (DMSO) at a concentration of 0.01 M. Serial dilutions were prepared with a non-supplemented culture medium. The effect of each compound on the cell viability was determined at two different concentrations (10 and 50 µM) in MCF-7, HTB-54, and HT-29 cells. In addition, the selected compounds were tested at six different concentrations between 0.1–100 µM in MCF-7, T47D, H1299, HTB-54, and 184B5 cells.
(§2) Briefly, 1 × 10^4 tumor cells/well or 2 × 10^4 non-tumorigenic cells/well were grown in 96-well plates for 12 h. Then, these cells were incubated with either DMSO (control) or a different concentration of each of the tested compounds for 48 h. Three hours before the termination point, 20 µL of MTT were added to measure the cellular viability. The resultant formazan crystals were dissolved in 50 µL of DMSO, and the absorbance was measured at 570 and 630 nm. The results are expressed as IC50, the half maximal inhibitory concentration. This value was calculated using OriginPro 8.5.1. software (OriginLab, Northampton, MA, USA) by nonlinear curve fitting. Furthermore, the selectivity index (SI) was calculated as the ratio of the IC50 values determined for the non-malignant and the tumor cells (IC50 (184B5)/IC50 (MCF-7). The data were obtained from at least three independent experiments performed in quadruplicates.

The subject of assay [4] is HT-29 cells. Description: MTT cell viability assay, HT-29. It counts as cell-based. To be noted: Homo sapiens, 48 h, read-out: Growth (%) HT-29. How it is done: as §1, §2
(Tetrazolium dyes change colour on reduction, which living cells bring about.)

For assay [5], the system named is MCF-7 cells. Description: MTT cell viability assay, MCF-7. Particulars: for activity at 10 µM / activity at 50 µM: read-out: Growth (%) MCF-7; for reduction of cell growth: in at least one of the cell lines (MCF-7, HT-29, HTB-54). The assay is classed as cell-based, human. How it is done: as §1, §2
Assay [6] is described as follows: ABTS radical scavenging assay. To be noted: for ABTS radical scavenging: 0.03 mg/mL, after the incubation time; for ABTS radical scavenging activity compared with controls: 0.003 mg/mL. The protocol:
ABTS radical scavenging was assayed with a colorimetric test as well [59]. Briefly, ABTS was dissolved in deionized water at 1 mg/mL and oxidized to ABTS^+• with potassium persulfate (2.45 mM final concentration). This reaction mixture was kept overnight at room temperature in the dark. After radical generation, ABTS^+• was diluted with 50% ethanol until an absorbance of 0.70 ± 0.02 at 734 nm for measurements. The tested compounds were solved in absolute ethanol at a concentration of 1 mg/mL, and 20 µL of this solution were added to 180 µL of the diluted ABTS^+•. After 6 min of incubation, the absorbance at 734 nm was recorded using 50% ethanol as the blank. Trolox and Asc were used as the positive controls. All of the determinations were carried out in triplicate. The same time intervals as in the DPPH assay were also measured. The ability to scavenge ABTS^+• was calculated using the following formula:(2) % ABTS radical scavenging=Acontrol−Asample/Acontrol × 100 where Acontrol refers to the absorbance of the negative control and Asample refers to the absorbance of the tested compounds. The results are expressed as percentage of ABTS radical scavenging ± SD.

Assay [7] has as its system H1299 cells. Description: MTT cell viability assay, H1299. It counts as cell-based. Particulars: Homo sapiens, NCI-H1299, lung cancer cells, 48 h. The protocol:
as §1, §2

The test system of assay [8] is T47D cells. In words: MTT cell viability assay, T47D. To be noted: Homo sapiens, breast cancer cells, 48 h. It counts as cell-based. The protocol: as §1, §2
Assay [9] concerns 184B5 cells. In words: MTT cell viability assay, non-malignant 184B5. It counts as cell-based. Particulars: Homo sapiens, non-malignant breast cells, 48 h. The protocol: as §1, §2
On the set-up of assay [10]: method as in doi:10.1007/s11172-013-0228-5. Particulars: conditions not tested by the authors; cited from earlier work.
[11] abbreviates: Homo sapiens, MCF7, 10 μM, 48 h.
Setting [12] is: Homo sapiens, MCF7, 50 μM, 48 h.

Consider `O=C1O[C@H]([C@@H](O)CO)C(O)=C1O` [Asc, Ascorbic acid, reference compound], for which, in [1] (0.003 mg/mL), the “protective effect against H2O2-induced oxidative stress” value is listed as “disappeared”.

As for `O=C(NC(=[Se])Nc1ccccc1)c1ccccc1Cl` [Compound 2a], the DPPH radical scavenging entry in assay [2] is given as “around 40%”. Besides, the activity at 10 µM in assay [3] (HTB-54) amounted to 91.3%; in [4], 79.1%; in [5] (setting [11]), 93.6%. Further, the activity at 50 µM in [3] (HTB-54) turned out to be 65.6%; in assay [4] it was 37.8%; in assay [5] (setting [12]), 30.5%.

Turning to `CSc1ccc(Cl)c(C(=O)NC(=[Se])Nc2ccc(C)cc2)c1` [Compound 3b], the DPPH radical scavenging entry in [2] is reported as “around 40%”. Also, the activity at 10 µM in [3] (HTB-54) is 45.1%; in assay [4], 64.7%; in assay [5] (setting [11]), 64.2%. Moreover, the activity at 50 µM came to 22.2% in [3] (HTB-54), 42.5% in [4] and 24.5% in assay [5] (setting [12]).

As to `Cc1ccc(NC(=[Se])NC(=O)C=Cc2ccccc2)cc1` [Compound 8b], the figures for the activity at 10 µM in [3] (HTB-54), in assay [4] and in [5] (setting [11]) were 85.9%, 95.3% and 95.5%, respectively. The activity at 50 µM in assay [3] (HTB-54) came to 72.8%; in assay [4] it was 76.9%; in assay [5] (setting [12]), 82.3%. For the same compound, the ABTS radical scavenging entry in assay [6] was “below 60%”.

In the case of `COc1ccc(NC(=[Se])NC(=O)C=Cc2ccccc2)cc1` [Compound 8c], the activity at 10 µM was determined as 64.1% in assay [3] (HTB-54), 73.4% in assay [4] and 70.2% in assay [5] (setting [11]). Besides, the activity at 50 µM in assay [3] (HTB-54) was found to be 19.3%; in [4] it was 42.5%; in assay [5] (setting [12]) it was 5.7%. For the same compound, in assay [6], the “ABTS radical scavenging activity compared with controls” value is “potent radical scavenging activity similar to Trolox”.

With `COc1ccc(NC(=[Se])NC(=O)c2cc3ccccc3s2)cc1` [Compound 9c], the results for the activity at 10 µM in assay [3] (HTB-54), in [4] and in assay [5] (setting [11]) were 64.2%, 47.9% and 63%, respectively. Further, the activity at 50 µM in assay [3] (HTB-54) came to 7.1%; in [4] it was 37.3%; in assay [5] (setting [12]), 49.2%. In addition, the results for the “increase fold of cell survival” value in assay [1] (H2O2 200 µM), in assay [1] (H2O2 250 µM) and in [1] (H2O2 300 µM) were at most 0.8 fold, at most 1.7 fold and “up to 3.6 fold”, respectively.

As to `O=C(NC(=[Se])Nc1ccc(C(F)(F)F)cc1)c1cc2ccccc2s1` [Compound 9d], the activity at 10 µM in assay [3] (HTB-54) is 84.5%; in assay [4], 61.2%; in [5] (setting [11]), 91.1%. Further, the activity at 50 µM came out at 79.3% in [3] (HTB-54), 36% in assay [4] and 70.2% in assay [5] (setting [12]). Moreover, the ABTS radical scavenging result in [6] is given as “below 60%”.

By IC50 is commonly meant the concentration at which inhibition is half-maximal. For `Cc1ccc(NC(=[Se])NC(=O)c2ccc3c(c2)OCO3)cc1` [Compound 10b], the IC50 was 5.9 ± 1.4 µM in assay [7]; 11.9 ± 1 µM in assay [8]; above 100 µM in assay [9]; 1.5 ± 1.8 µM in assay [3] (HTB-54, lung cancer cells, MTT, read-out: IC50 HTB-54); 1.5 to 7.3 µM in [3] (HTB-54 and H1299 pooled, read-out: IC50 on both lung cancer cells); 7.3 ± 0.3 µM in [5] (Homo sapiens, MCF7, breast cancer cells, 48 h, MTT, read-out: IC50 MCF-7). In addition, the values for the activity at 10 µM in assay [3] (HTB-54), in assay [4] and in assay [5] (setting [11]) were 16.4%, 63.3% and 63%, respectively. Further, the activity at 50 µM turned out to be 12% in assay [3] (HTB-54), 43.9% in [4] and 7.4% in assay [5] (setting [12]). Besides, the “reduction of cell growth” value in assay [5] (10 μM, 48 h) is “at least 45%”; in [5] (50 μM, 48 h) it was “more than 85%”. The “SI (selectivity index)” value in assay [5] (IC50 (184B5)/IC50 (MCF-7)) is on record as above 13.6. In addition, the “ABTS radical scavenging activity compared with controls” value in [6] was “potent radical scavenging activity similar to Trolox”.

As to `O=[Se]([O-])[O-].[Na+].[Na+]` [sodium selenite], in assay [10], the “DPPH radical scavenging activity” value is “only showed DPPH radical scavenging activity at pH 3.0”.
